In brackets after ≈: the same amount, converted by molar mass.
Columns and labels:
Assay type in all cases: functional
Aspergillus niger = experiment: Antifungal activity against Aspergillus niger MTCC 282; settings: for MIC: Aspergillus niger, MTCC 282
[1] = system: Mycobacterium tuberculosis; experiment: Antimycobacterial activity against Mycobacterium tuberculosis H37Rv; settings: for MIC: Mycobacterium tuberculosis, H37Rv
Staphylococcus aureus = experiment: Antibacterial activity against Staphylococcus aureus MTCC 96
Escherichia coli = experiment: Antibacterial activity against Escherichia coli MTCC 739
Candida albicans = experiment: Antifungal activity against Candida albicans MTCC 183; settings: for MIC: Candida albicans, MTCC 183
Pseudomonas aeruginosa = experiment: Antibacterial activity against Pseudomonas aeruginosa MTCC 741
Bacillus cereus = experiment: Antibacterial activity against Bacillus cereus MTCC 430
Klebsiella pneumoniae = experiment: Antibacterial activity against Klebsiella pneumoniae MTCC 109
[2] = Pseudomonas aeruginosa, MTCC 741
[3] = Klebsiella pneumoniae, MTCC 109

Compound	inhibition zone (IZ) (Aspergillus niger)	MIC (Aspergillus niger)	inhibition (INH) [1]	MIC [1]	inhibition zone (IZ) (Staphylococcus aureus)	MIC (Staphylococcus aureus; Staphylococcus aureus, MTCC 96)	inhibition zone (IZ) (Escherichia coli)	MIC (Escherichia coli; Escherichia coli, MTCC 739)	inhibition zone (IZ) (Candida albicans)	MIC (Candida albicans)	inhibition zone (IZ) (Pseudomonas aeruginosa)	MIC (Pseudomonas aeruginosa; [2])	inhibition zone (IZ) (Bacillus cereus)	MIC (Bacillus cereus; Bacillus cereus, MTCC 430)	inhibition zone (IZ) (Klebsiella pneumoniae)	MIC (Klebsiella pneumoniae; [3])	further results
CCOc1ccc(NC(=O)Nc2ccc(-c3nc(Oc4cccc(C)c4)c4ccccc4n3)cc2)cc1	23 mm	50 µg/mL (≈ 102 µM)	96%	100 µg/mL (≈ 204 µM)	22 mm	50 µg/mL (≈ 102 µM)	24 mm	200 µg/mL (≈ 408 µM)	27 mm	50 µg/mL (≈ 102 µM)	26 mm	50 µg/mL (≈ 102 µM)	24 mm	25 µg/mL (≈ 51 µM)	25 mm	25 µg/mL (≈ 51 µM)	–
CCOc1ccc(NC(=S)Nc2ccc(-c3nc(Oc4cccc(C)c4)c4ccccc4n3)cc2)cc1	26 mm	25 µg/mL (≈ 49.3 µM)	95%	200 µg/mL (≈ 395 µM)	22 mm	12.5 µg/mL (≈ 24.7 µM)	24 mm	62.5 µg/mL (≈ 123 µM)	22 mm	50 µg/mL (≈ 98.7 µM)	26 mm	12.5 µg/mL (≈ 24.7 µM)	19 mm	100 µg/mL (≈ 197 µM)	23 mm	25 µg/mL (≈ 49.3 µM)	–
Cc1ccc(NC(=S)Nc2ccc(-c3nc(Oc4cccc(C)c4)c4ccccc4n3)cc2)cc1	18 mm	200 µg/mL (≈ 420 µM)	94%	100 µg/mL (≈ 210 µM)	22 mm	50 µg/mL (≈ 105 µM)	23 mm	50 µg/mL (≈ 105 µM)	23 mm	50 µg/mL (≈ 105 µM)	23 mm	50 µg/mL (≈ 105 µM)	21 mm	200 µg/mL (≈ 420 µM)	21 mm	50 µg/mL (≈ 105 µM)	–
GENTAMICIN	–	–	–	–	–	–	–	–	–	–	–	–	30 mm	–	30 mm	–	MIC (Staphylococcus aureus): 6.25 µg/mL; MIC (Escherichia coli): 12.5 µg/mL; MIC (Pseudomonas aeruginosa): 12.5 µg/mL; MIC (Bacillus cereus): 6.25 µg/mL; MIC (Klebsiella pneumoniae): 25 µg/mL
OC(Cn1cncn1)(Cn1cncn1)c1ccc(F)cc1F [FLUCONAZOLE]	30 mm	6.25 µg/mL (≈ 20.4 µM)	–	–	–	–	–	–	31 mm	12.5 µg/mL (≈ 40.8 µM)	–	–	–	–	–	–	–
CO[C@H]1/C=C/O[C@@]2(C)Oc3c(C)c(O)c4c(O)c(c(/C=N/N5CCN(C)CC5)c(O)c4c3C2=O)NC(=O)/C(C)=C\C=C\[C@H](C)[C@H](O)[C@@H](C)[C@@H](O)[C@@H](C)[C@H](OC(C)=O)[C@@H]1C [RIFAMPIN]	–	–	99%	0.25 µg/mL (≈ 0.304 µM)	–	–	–	–	–	–	–	–	–	–	–	–	–
Cc1ccc(NC(=O)Nc2ccc(-c3nc(Oc4cccc(C)c4)c4ccccc4n3)cc2)cc1	21 mm	200 µg/mL (≈ 434 µM)	95%	200 µg/mL (≈ 434 µM)	23 mm	100 µg/mL (≈ 217 µM)	24 mm	25 µg/mL (≈ 54.3 µM)	24 mm	50 µg/mL (≈ 109 µM)	27 mm	25 µg/mL (≈ 54.3 µM)	24 mm	250 µg/mL (≈ 543 µM)	24 mm	50 µg/mL (≈ 109 µM)	–
NC(=O)c1cnccn1 [PYRAZINAMIDE]	–	–	99%	6.25 µg/mL (≈ 50.8 µM)	–	–	–	–	–	–	–	–	–	–	–	–	–
COc1ccc(NC(=S)Nc2ccc(-c3nc(Oc4cccc(C)c4)c4ccccc4n3)cc2)cc1	21 mm	50 µg/mL (≈ 102 µM)	97%	100 µg/mL (≈ 203 µM)	25 mm	12.5 µg/mL (≈ 25.4 µM)	27 mm	25 µg/mL (≈ 50.8 µM)	28 mm	12.5 µg/mL (≈ 25.4 µM)	27 mm	25 µg/mL (≈ 50.8 µM)	24 mm	50 µg/mL (≈ 102 µM)	24 mm	50 µg/mL (≈ 102 µM)	–
Cc1cccc(Oc2nc(-c3ccc(NC(=S)Nc4ccc(Br)cc4)cc3)nc3ccccc23)c1	23 mm	25 µg/mL (≈ 46.2 µM)	99%	12.5 µg/mL (≈ 23.1 µM)	29 mm	6.25 µg/mL (≈ 11.5 µM)	25 mm	50 µg/mL (≈ 92.3 µM)	27 mm	12.5 µg/mL (≈ 23.1 µM)	25 mm	25 µg/mL (≈ 46.2 µM)	26 mm	12.5 µg/mL (≈ 23.1 µM)	27 mm	12.5 µg/mL (≈ 23.1 µM)	–
NNC(=O)c1ccncc1 [ISONIAZID]	–	–	–	0.2 µg/mL (≈ 1.46 µM)	–	–	–	–	–	–	–	–	–	–	–	–	–
CC[C@@H](CO)NCCN[C@@H](CC)CO [ETHAMBUTOL]	–	–	99%	3.12 µg/mL (≈ 15.3 µM)	–	–	–	–	–	–	–	–	–	–	–	–	–
CC1(C)S[C@@H]2[C@H](NC(=O)[C@H](N)c3ccccc3)C(=O)N2[C@H]1C(=O)O [AMPICILLIN]	–	–	–	–	30 mm	12.5 µg/mL (≈ 35.8 µM)	31 mm	6.25 µg/mL (≈ 17.9 µM)	–	–	28 mm	25 µg/mL (≈ 71.5 µM)	28 mm	12.5 µg/mL (≈ 35.8 µM)	33 mm	25 µg/mL (≈ 71.5 µM)	–
Cc1cccc(Oc2nc(-c3ccc(NC(=O)Nc4ccc(Cl)cc4)cc3)nc3ccccc23)c1	26 mm	200 µg/mL (≈ 416 µM)	98%	100 µg/mL (≈ 208 µM)	25 mm	50 µg/mL (≈ 104 µM)	27 mm	62.5 µg/mL (≈ 130 µM)	21 mm	100 µg/mL (≈ 208 µM)	24 mm	50 µg/mL (≈ 104 µM)	24 mm	100 µg/mL (≈ 208 µM)	23 mm	62.5 µg/mL (≈ 130 µM)	–
Cc1cccc(Oc2nc(-c3ccc(NC(=O)Nc4ccc(F)cc4)cc3)nc3ccccc23)c1	23 mm	25 µg/mL (≈ 53.8 µM)	97%	62.5 µg/mL (≈ 135 µM)	22 mm	200 µg/mL (≈ 431 µM)	23 mm	62.5 µg/mL (≈ 135 µM)	26 mm	12.5 µg/mL (≈ 26.9 µM)	23 mm	100 µg/mL (≈ 215 µM)	21 mm	100 µg/mL (≈ 215 µM)	21 mm	200 µg/mL (≈ 431 µM)	–
Cc1cccc(Oc2nc(-c3ccc(NC(=O)Nc4ccc(Br)cc4)cc3)nc3ccccc23)c1	22 mm	62.5 µg/mL (≈ 119 µM)	99%	25 µg/mL (≈ 47.6 µM)	24 mm	12.5 µg/mL (≈ 23.8 µM)	27 mm	62.5 µg/mL (≈ 119 µM)	24 mm	50 µg/mL (≈ 95.2 µM)	25 mm	25 µg/mL (≈ 47.6 µM)	28 mm	12.5 µg/mL (≈ 23.8 µM)	24 mm	50 µg/mL (≈ 95.2 µM)	–
Cc1cccc(Oc2nc(-c3ccc(NC(=O)Nc4ccccc4)cc3)nc3ccccc23)c1	22 mm	200 µg/mL (≈ 448 µM)	95%	250 µg/mL (≈ 560 µM)	22 mm	200 µg/mL (≈ 448 µM)	23 mm	100 µg/mL (≈ 224 µM)	23 mm	250 µg/mL (≈ 560 µM)	21 mm	62.5 µg/mL (≈ 140 µM)	20 mm	250 µg/mL (≈ 560 µM)	19 mm	100 µg/mL (≈ 224 µM)	–
COc1ccc(NC(=O)Nc2ccc(-c3nc(Oc4cccc(C)c4)c4ccccc4n3)cc2)cc1	23 mm	50 µg/mL (≈ 105 µM)	94%	62.5 µg/mL (≈ 131 µM)	23 mm	25 µg/mL (≈ 52.5 µM)	24 mm	200 µg/mL (≈ 420 µM)	25 mm	25 µg/mL (≈ 52.5 µM)	26 mm	25 µg/mL (≈ 52.5 µM)	22 mm	50 µg/mL (≈ 105 µM)	26 mm	200 µg/mL (≈ 420 µM)	–
Cc1cccc(Oc2nc(-c3ccc(NC(=S)Nc4ccc(Cl)cc4)cc3)nc3ccccc23)c1	24 mm	12.5 µg/mL (≈ 25.1 µM)	98%	25 µg/mL (≈ 50.3 µM)	24 mm	12.5 µg/mL (≈ 25.1 µM)	27 mm	25 µg/mL (≈ 50.3 µM)	28 mm	25 µg/mL (≈ 50.3 µM)	26 mm	12.5 µg/mL (≈ 25.1 µM)	27 mm	50 µg/mL (≈ 101 µM)	27 mm	25 µg/mL (≈ 50.3 µM)	–
Cc1cccc(Oc2nc(-c3ccc(NC(=S)Nc4ccc(F)cc4)cc3)nc3ccccc23)c1	22 mm	50 µg/mL (≈ 104 µM)	96%	50 µg/mL (≈ 104 µM)	24 mm	25 µg/mL (≈ 52 µM)	27 mm	25 µg/mL (≈ 52 µM)	25 mm	6.25 µg/mL (≈ 13 µM)	25 mm	50 µg/mL (≈ 104 µM)	27 mm	200 µg/mL (≈ 416 µM)	24 mm	100 µg/mL (≈ 208 µM)	–
Cc1cccc(Oc2nc(-c3ccc(NC(=S)Nc4ccccc4)cc3)nc3ccccc23)c1	23 mm	50 µg/mL (≈ 108 µM)	95%	100 µg/mL (≈ 216 µM)	27 mm	200 µg/mL (≈ 432 µM)	26 mm	250 µg/mL (≈ 540 µM)	25 mm	200 µg/mL (≈ 432 µM)	25 mm	50 µg/mL (≈ 108 µM)	24 mm	50 µg/mL (≈ 108 µM)	22 mm	200 µg/mL (≈ 432 µM)	–

Source: ChEMBL document CHEMBL2424558, “Synthesis and biological evaluation of novel quinazoline derivatives obtained by Suzuki CC coupling” (2013)
